{
  "source": "patent US6806286B2",
  "about": "“Pyrrolecarboxamides and pyrrolethioamides as fungicides” (Syngenta Crop Protection, Inc., priority 2000, dated 2004)",
  "key": {"Podosphaera leucotricha": {"system": "Podosphaera leucotricha", "test": "Action against Podosphaera leucotricha/apple (powdery mildew on apple)", "format": "in vivo", "conditions": "apple seedlings cv. McIntosh, spray 0.002% active ingredient, inoculated one day after application, assessed after 12 days incubation", "method": "Action Against Podosphaera leucotricha/apple (Powdery Mildew on Apple)\n5 week old apple seedlings cv. […] One day after application apple plants are inoculated by shaking plants infected with apple powdery mildew above the test plants. After an incubation period of 12 days at 22° C. and 60% r. h. under a light regime of 14/10 h (light/dark) the disease incidence is assessed."}, "Botryis cinerea": {"system": "Botryis cinerea", "test": "Action against Botryis cinerea/apple (Botrytis on apple fruits)", "format": "in vivo, B. cinerea", "conditions": "apple fruit cv. Golden Delicious, 30 μl droplets 0.002% active ingredient in drilled holes, inoculated two hours after application, assessed after 7 days", "method": "Action Against Botryis cinerea/apple (Botrytis on Apple Fruits)\nIn an apple fruit cv. […] Two hours after application 50 μl of a spore suspension of B. cinerea (4×10^5 conidia/ml) are pipetted on the application sites. After an incubation period of 7 days at 22° C. in a growth chamber the disease incidence is assessed."}, "Etysiphe graminis": {"system": "Etysiphe graminis", "test": "Action against Etysiphe graminis/barley (powdery mildew on barley)", "format": "in vivo", "conditions": "barley plants cv. Express, spray 0.02% active ingredient, inoculated one day after application, assessed after 6 days incubation", "method": "Action Against Etysiphe graminis/barley (Powdery Mildew on Barley)\n1 week old barley plants cv. […] One day after application barley plants are inoculated by shaking powdery mildew infected plants above the test plants. After an incubation period of 6 days at 20° C./18° C. (day/night) and 60% r. h. in a greenhouse the disease incidence is assessed."}, "Boftis cinerea": {"system": "Boftis cinerea", "test": "Action against Boftis cinerea/grape (Botrytis on grapes)", "format": "in vivo", "conditions": "grape seedlings cv. Gutedel, spray 0.002% active ingredient, inoculated two days after application, assessed after 4 days incubation", "method": "Action Against Boftis cinerea/grape (Botrytis on Grapes)\n5 week old grape seedlings cv. […] Two days after application grape plants are inoculated by spraying a spore suspension (1×10^6 conidia/ml) on the test plants. After an incubation period of 4 days at 21° C. and 95% r. h. in a greenhouse the disease incidence is assessed."}, "Botryts cinerea": {"system": "Botryts cinerea", "test": "Action against Botryts cinerea/tomato (Botrytis on tomatoes)", "format": "in vivo", "conditions": "tomato plants cv. Roter Gnom, spray 0.002% active ingredient, inoculated two days after application, assessed after 4 days incubation", "method": "Action Against Botryts cinerea/tomato (Botrytis on Tomatoes)\n4 week old tomato plants cv. […] Two days after application tomato plants are inoculated by spraying a spore suspension (1×10^5 conidia/ml) on the test plants. After an incubation period of 4 days at 20° C. and 95% r. h. in a growth chamber the disease incidence is assessed."}, "Septoria nodorum": {"system": "Septoria nodorum", "test": "Action against Septoria nodorum/wheat (Septoria leaf spot on wheat)", "format": "in vivo", "conditions": "wheat plants cv. Arina, spray 0.02% active ingredient, inoculated one day after application, assessed 11 days after inoculation", "method": "Action Against Septoria nodorum/wheat (Septoria Leaf Spot on Wheat)\n1 week old wheat plants cv. […] One day after application wheat plants are inoculated by spraying a spore suspension (5×10^5 conidia/ml) on the test plants. After an incubation period of 1 day at 20° C. and 95% r. h. plants are kept for 10 days at 20° C. and 60% r.h. in a greenhouse. The disease incidence is assessed 11 days after inoculation."}, "Puenophora teres": {"system": "Puenophora teres", "test": "Action against Puenophora teres/barley (net blotch on barley)", "format": "in vivo", "conditions": "barley plants cv. Express, spray 0.002% active ingredient, inoculated two days after application, assessed 4 days after inoculation", "method": "Action Against Puenophora teres/barley (Net Blotch on Barley)\n1 week old barley plants cv. […] Two days after application barley plants are inoculated by spraying a spore suspension (3×10^4 conidia/ml) on the test plants. After an incubation period of 2 days at 20° C. and 95% r. h. plants are kept for 2 days at 20° C. and 60% r.h. in a greenhouse. The disease incidence is assessed 4 days after inoculation."}, "Venturia Inaequalis": {"system": "Venturia Inaequalis", "test": "Action against Venturia inaequalis/apple (scab on apple)", "format": "in vivo", "conditions": "apple seedlings cv. McIntosh, spray 0.02% active ingredient, inoculated one day after application, assessed after 4+4+4 days incubation", "method": "Action Against Venturia Inaequalis/apple (Scab on Apple)\n4 week old apple seedlings cv. […] One day after application apple plants are inoculated by spraying a spore suspension (4×10^5 conidia/ml) on the test plants. After an incubation period of 4 days at 21° C. and 95% r. h. the plants are placed for 4 days at 21° C. and 60% r. h. in a greenhouse. After another 4 day incubation period at 21° C. and 95% r. h. the disease incidence is assessed."}},
  "data": [
    {"compound": "Cc1cn(C)cc1C(=O)Nc1ccccc1-c1ccc(F)cc1", "note": "[Compound 1.25]", "values": [
      {"measurement": "efficacy (disease incidence)", "setting": "Podosphaera leucotricha", "value": "strong efficacy"},
      {"measurement": "efficacy (disease incidence)", "setting": "Botryis cinerea", "value": "strong efficacy"},
      {"measurement": "efficacy (disease incidence)", "setting": "Etysiphe graminis", "value": "strong efficacy"},
      {"measurement": "efficacy (disease incidence)", "setting": "Boftis cinerea", "value": "strong efficacy"},
      {"measurement": "efficacy (disease incidence)", "setting": "Botryts cinerea", "value": "strong efficacy"},
      {"measurement": "efficacy (disease incidence)", "setting": "Septoria nodorum", "value": "strong efficacy"},
      {"measurement": "efficacy (disease incidence)", "setting": "Puenophora teres", "value": "strong efficacy"},
      {"measurement": "efficacy (disease incidence)", "setting": "Venturia Inaequalis", "value": "strong efficacy"},
      {"measurement": "melting point", "value": "148 to 149", "unit": "°C"}
    ]},
    {"compound": "Cn1cc(C(=O)Nc2cnccc2-c2ccc(F)cc2)c(C2CC2)c1", "note": "[Compound 6.51]", "values": [
      {"measurement": "efficacy (disease incidence)", "setting": "Podosphaera leucotricha", "value": "strong efficacy"},
      {"measurement": "efficacy (disease incidence)", "setting": "Botryis cinerea", "value": "strong efficacy"},
      {"measurement": "efficacy (disease incidence)", "setting": "Etysiphe graminis", "value": "strong efficacy"},
      {"measurement": "efficacy (disease incidence)", "setting": "Boftis cinerea", "value": "strong efficacy"},
      {"measurement": "efficacy (disease incidence)", "setting": "Botryts cinerea", "value": "strong efficacy"},
      {"measurement": "efficacy (disease incidence)", "setting": "Septoria nodorum", "value": "strong efficacy"},
      {"measurement": "efficacy (disease incidence)", "setting": "Puenophora teres", "value": "strong efficacy"},
      {"measurement": "efficacy (disease incidence)", "setting": "Venturia Inaequalis", "value": "strong efficacy"}
    ]},
    {"compound": "Cn1cc(C(=O)Nc2ccsc2-c2ccc(Cl)cc2)c(C(F)(F)C(F)(F)F)c1", "note": "[Compound 2.190]", "values": [
      {"measurement": "efficacy (disease incidence)", "setting": "Podosphaera leucotricha", "value": "strong efficacy"},
      {"measurement": "efficacy (disease incidence)", "setting": "Botryis cinerea", "value": "strong efficacy"},
      {"measurement": "efficacy (disease incidence)", "setting": "Etysiphe graminis", "value": "strong efficacy"},
      {"measurement": "efficacy (disease incidence)", "setting": "Boftis cinerea", "value": "strong efficacy"},
      {"measurement": "efficacy (disease incidence)", "setting": "Botryts cinerea", "value": "strong efficacy"},
      {"measurement": "efficacy (disease incidence)", "setting": "Septoria nodorum", "value": "strong efficacy"},
      {"measurement": "efficacy (disease incidence)", "setting": "Puenophora teres", "value": "strong efficacy"},
      {"measurement": "efficacy (disease incidence)", "setting": "Venturia Inaequalis", "value": "strong efficacy"}
    ]},
    {"compound": "CCn1cc(C(=O)Nc2ccccc2-c2ccc(Cl)cc2)c(C(C)C)c1", "note": "[Compound 1.271]", "values": [
      {"measurement": "efficacy (disease incidence)", "setting": "Podosphaera leucotricha", "value": "strong efficacy"},
      {"measurement": "efficacy (disease incidence)", "setting": "Botryis cinerea", "value": "strong efficacy"},
      {"measurement": "efficacy (disease incidence)", "setting": "Etysiphe graminis", "value": "strong efficacy"},
      {"measurement": "efficacy (disease incidence)", "setting": "Boftis cinerea", "value": "strong efficacy"},
      {"measurement": "efficacy (disease incidence)", "setting": "Botryts cinerea", "value": "strong efficacy"},
      {"measurement": "efficacy (disease incidence)", "setting": "Septoria nodorum", "value": "strong efficacy"},
      {"measurement": "efficacy (disease incidence)", "setting": "Puenophora teres", "value": "strong efficacy"},
      {"measurement": "efficacy (disease incidence)", "setting": "Venturia Inaequalis", "value": "strong efficacy"}
    ]},
    {"compound": "CCc1cn(CC)cc1C(=O)Nc1ccccc1-c1ccc(F)cc1", "note": "[Compound 1.266]", "values": [
      {"measurement": "efficacy (disease incidence)", "setting": "Podosphaera leucotricha", "value": "strong efficacy"},
      {"measurement": "efficacy (disease incidence)", "setting": "Botryis cinerea", "value": "strong efficacy"},
      {"measurement": "efficacy (disease incidence)", "setting": "Etysiphe graminis", "value": "strong efficacy"},
      {"measurement": "efficacy (disease incidence)", "setting": "Boftis cinerea", "value": "strong efficacy"},
      {"measurement": "efficacy (disease incidence)", "setting": "Botryts cinerea", "value": "strong efficacy"},
      {"measurement": "efficacy (disease incidence)", "setting": "Septoria nodorum", "value": "strong efficacy"},
      {"measurement": "efficacy (disease incidence)", "setting": "Puenophora teres", "value": "strong efficacy"},
      {"measurement": "efficacy (disease incidence)", "setting": "Venturia Inaequalis", "value": "strong efficacy"}
    ]}
  ]
}
